Data taken from PubChem BioAssay AID179 (DTP/NCI, 2004).
Active and inactive are the calls of the source.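 How the source made its calls: active means compounds giving half or more protection of infected cells from virus-caused growth loss, again on retest; inactive means the rest.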

Test system: CEM cells HIV-1 protection, formazan growth assay
Assay: NCI AIDS Antiviral Assay
Details: for IC50: measured here: growth of uninfected CEM cells
Outline: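 CEM (human) cells, HIV-1 infected vs uninfected, 5-point dosing, formazan growth read-out. Retest threshold 50% protection.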

For `CN(C)N=Nc1ccc(/C=C2/C=Cc3ccccc32)cc1`, the EC50 was > 49 µM and the IC50 was > 49 µM.
For `Nc1ncnc2c1ncn2CC(=O)NCCO`, the EC50 was > 200 µM and the IC50 was > 200 µM.
`COC1CN(C)C(=Nc2cccc3ccccc23)S1` (stereo not drawn) was tested, and the EC50 was > 200 µM and the IC50 was 112 µM.
In the case of `Sc1nc2ccccc2s1.Sc1nc2ccccc2s1.Sc1nc2ccccc2s1.Sc1nc2ccccc2s1.[Cl][Rh][Cl]`, the EC50 is reported as > 151 µM and the IC50 is reported as 2.95 µM.
With `NC(=S)N/N=C/c1cc(CN2CCOCC2)c(N)cn1` the EC50 was > 200 µM and the IC50 was 10.5 µM.
`CS(=O)(=O)c1ccc(N2CC2)nn1` was tested, and the EC50 was > 200 µM and the IC50 was 89.1 µM.
With `COC(=O)c1ccccc1CC1Cc2cc3c(cc2C1)CCC3` the EC50 was > 200 µM and the IC50 was 38 µM.
With `CC(C)/C(Cl)=N\OC(=O)NNc1ccccc1` the EC50 was > 20 µM and the IC50 was 5.75 µM.
`COc1ccc2c(c1)CC[C@@H]1[C@@H]2CC[C@]2(C)C(=O)/C(=N/O)C[C@@H]12` was tested, and the EC50 was > 200 µM and the IC50 was 8.51 µM.
`CCn1cc(C(=O)O)c(=O)c2cccc(OC)c21` was tested, and the outcome was “inactive”.
For `O=c1n(-c2ccccc2)c(=O)n2n1C1C3C4CCC1C4(Cl)C32` (stereo not drawn), the EC50 was > 40.7 µM and the IC50 was > 40.7 µM.
In the case of `c1ccc(C2=NN(c3ccccc3)CC2)cc1`, the outcome is reported as “inactive”.
With `N#CC(C#N)=Cc1ccccc1C(=O)O` the EC50 was > 200 µM and the IC50 was 110 µM.
With `O=c1c2cccnc2ncn1CCN1CCOCC1` the outcome was “inactive”.
`O=C(O)CCCc1ccc2c(c1)C(C(=O)O)CC2` (stereo not drawn) was tested, and the EC50 was > 200 µM and the IC50 was > 200 µM.
With `CCOC(=O)c1nc2cc(C(F)(F)F)ccc2nc1Oc1ccc(F)cc1` the EC50 was > 200 µM and the IC50 was 186 µM.
In the case of `C1=Nc2ccc(cc2)-c2ccc(cc2)N=Cc2ccccc2OCc2cccc(n2)COc2ccccc21`, the EC50 is reported as > 200 µM and the IC50 is reported as > 200 µM.
`O=C(Nc1ccc(OCC2=NCCN2)cc1)c1ccc(C(=O)Nc2ccc(OCC3=NCCN3)cc2)cc1` was tested, and the EC50 was > 200 µM and the IC50 was > 200 µM.
`NC(=S)N/N=C/c1cc(=O)c2cc(Cl)ccc2o1` was tested, and the EC50 was > 66.1 µM and the IC50 was > 66.1 µM.
In the case of `O=C1c2cnccc2Cc2cccc3c2N1c1ccccc1S3`, the EC50 is reported as > 22.9 µM and the IC50 is reported as > 22.9 µM.
With `CN(CCc1ccc(Br)cc1)CCN1CCCCC1` the EC50 was > 123 µM and the IC50 was 57.5 µM.
In the case of `O=C(NC1C/C(=N/O)c2c(Br)sc(Br)c21)C(F)(F)F` (stereo not drawn), the EC50 is reported as > 200 µM and the IC50 is reported as 53.7 µM.
For `O=C(O)CSSCC(=O)O`, the EC50 was > 200 µM and the IC50 was > 200 µM.
With `COC(=O)C(N)CSSCC(N)C(=O)OC` (stereo not drawn) the EC50 was > 324 µM and the IC50 was 123 µM.
For `O=c1[nH]c(-c2ccccc2)nc2cc(Cl)ccc12`, the outcome was “inactive”.
With `COc1ccc(NC(=O)C(=O)Cc2ccc([N+](=O)[O-])c([N+](=O)[O-])c2CC(=O)C(=O)Nc2ccc(OC)cc2OC)c(OC)c1` the EC50 was > 407 µM and the IC50 was 186 µM.
With `CC(NCCCCCCNC(C)C(=O)O)C(=O)O` (stereo not drawn) the EC50 was > 589 µM and the IC50 was > 589 µM.
In the case of `CCCNC(=S)/N=C\c1c(O)c2ccccc2oc1=O`, the EC50 is reported as > 200 µM and the IC50 is reported as > 200 µM.
With `Cc1cc2c(cc1C)n1c(N(C)C)[n+]3ccccc3c1c1c3cccc[n+]3c(N(C)C)n21` the EC50 was > 151 µM and the IC50 was 21.9 µM.
`Cc1cc(CO)c(O)c(CN(CC(=O)O)CC(=O)O)c1` was tested, and the EC50 was > 200 µM and the IC50 was 141 µM.
With `O=c1c2c([nH]c3ccccc13)CSC2` the EC50 was > 67.6 µM and the IC50 was > 67.6 µM.
With `CC1(Cl)CC(O)C2(CC1Br)C1(C)OC1C1OC1(Br)C2(C)C` (stereo not drawn) the EC50 was > 200 µM and the IC50 was 15.1 µM.
With `O=C1C(O)C(O)C(O)C(O)C1O` (stereo not drawn) the EC50 was > 200 µM and the IC50 was > 200 µM.
With `CC1(C)CC2=C(CC3C4C=C5CC(C)(C)OC(=O)C5(C4)C23)C(=O)O1` (stereo not drawn) the EC50 was > 87.1 µM and the IC50 was > 87.1 µM.
`C(=N\Nc1ccc2ccccc2n1)/c1ccccn1.CC(=O)[O-].CC(=O)[O-].[Zn+2]` was tested, and the EC50 was > 200 µM and the IC50 was 1.05 µM.
With `CCOc1ccc(NC(=O)CC2SC(=Nc3ccc(C)cc3C)NC2=O)cc1` (stereo not drawn) the EC50 was > 66.1 µM and the IC50 was > 66.1 µM.
In the case of `O=c1c(F)cn(Cc2c(Cl)cccc2Cl)c(=O)n1Cc1c(Cl)cccc1Cl`, the EC50 is reported as > 200 µM and the IC50 is reported as 47.9 µM.
For `Cc1c(Cc2ccccc2)n(COCCCO)c(=O)[nH]c1=O`, the EC50 was 138 µM and the IC50 was > 200 µM.
`O=C1c2ccccc2C(=O)c2c1cc(S(=O)(=O)O)c(O)c2O` was tested, and the outcome was “inactive”.
In the case of `CC(C)=CCC1(c2ccccc2)Oc2cccnc2-n2cccc2C1=O` (stereo not drawn), the EC50 is reported as > 200 µM and the IC50 is reported as 28.8 µM.
In the case of `O=[N+]([O-])c1ccc(-n2nc3ccc4c(no[n+]4[O-])c3[n+]2[O-])c([N+](=O)[O-])c1`, the EC50 is reported as > 20 µM and the IC50 is reported as 0.407 µM.
`CCCCCC(=Nc1n[nH]nc1C(N)=O)OCC` was tested, and the EC50 was > 200 µM and the IC50 was > 200 µM.
`Nc1cc(F)ccc1CC(=O)O` was tested, and the EC50 was > 200 µM and the IC50 was > 200 µM.
`COc1ccc(C)c2c1N[C@](C)([C@]1(C)Nc3c(OC)ccc(C)c3C1=O)C2=O` was tested, and the EC50 was > 100 µM and the IC50 was > 100 µM.
